From ChEMBL document CHEMBL3616388, “Discovery of novel nonpeptide allosteric inhibitors interrupting the interaction of CDK2/cyclin A3 by virtual screening and bioassays” (Bioorg Med Chem Lett, 2015)
Blank lines part the entries; values can stand above or below the compound they belong to.

Key:
[1] = target: T1, Cyclin-dependent kinase 2 (Homo sapiens, UniProt P24941); test: Binding affinity to N-terminal His-tagged recombinant human CDK2 (1 to 298 amino acid residues) expressed in Escherichia coli BL21 assessed as inhibition of interaction with cyclin A3 by measuring HHASPRK phosphorylation at 100 uM by ADP-Glo Max assay relative to control
[2] = target: T1, Cyclin-dependent kinase 2; test: Binding affinity to N-terminal His-tagged recombinant human CDK2 (1 to 298 amino acid residues) expressed in Escherichia coli BL21 assessed as inhibition of interaction with cyclin A3 by measuring 250 uM HHASPRK phosphorylation by ADP-Glo Max assay in presence of 75 uM ATP
[3] = target: T1, Cyclin-dependent kinase 2; test: Binding affinity to GST-tagged recombinant human CDK2 (1 to 298 amino acid residues) expressed in Escherichia coli BL21 assessed as inhibition of interaction with His-tagged cyclin A3 preincubated overnight with GST-tagged protein followed by His-tagged cyclin A3 addition by GST pull down assay
[4] = tested on: A549; test: Cell cycle arrest in human A549 cells assessed as accumulation at S phase at 50 uM after 72 hrs by propidium iodide staining-based flow cytometric analysis (reference value: 11.53%); type: functional
[5] = tested on: A549; test: Cell cycle arrest in human A549 cells assessed as accumulation at S phase at 25 uM after 72 hrs by propidium iodide staining-based flow cytometric analysis (reference value: 11.53%); type: functional
[6] = target: T1, Cyclin-dependent kinase 2; test: Binding affinity to N-terminal His-tagged recombinant human CDK2 (1 to 298 amino acid residues) expressed in Escherichia coli BL21 assessed as inhibition of interaction with cyclin A3 by measuring 1.25 mM HHASPRK phosphorylation by ADP-Glo Max assay in presence of 75 uM ATP
[7] = tested on: A549; test: Cell cycle arrest in human A549 cells assessed as accumulation at G2/M phase at 10 uM after 72 hrs by propidium iodide staining-based flow cytometric analysis (reference value: 19.79%); type: functional
[8] = tested on: A549; test: Cell cycle arrest in human A549 cells assessed as accumulation at S phase at 200 uM after 72 hrs by propidium iodide staining-based flow cytometric analysis (reference value: 11.53%); type: functional
[9] = tested on: A549; test: Cytotoxicity against human A549 cells assessed as cell viability after 72 hrs by MTS assay; type: functional, cell-based
[10] = target: T1, Cyclin-dependent kinase 2; test: Binding affinity to N-terminal His-tagged recombinant human CDK2 (1 to 298 amino acid residues) expressed in Escherichia coli BL21 assessed as inhibition of interaction with cyclin A3 by measuring 250 uM HHASPRK phosphorylation by ADP-Glo Max assay in presence of 750 uM ATP
[11] = tested on: A549; test: Cell cycle arrest in human A549 cells assessed as accumulation at G0/G1 phase at 50 uM after 72 hrs by propidium iodide staining-based flow cytometric analysis (reference value: 68.68%); type: functional
[12] = tested on: A549; test: Cell cycle arrest in human A549 cells assessed as accumulation at G0/G1 phase at 200 uM after 72 hrs by propidium iodide staining-based flow cytometric analysis (reference value: 68.68%); type: functional
[13] = target: Cyclin-dependent kinase 2 (Homo sapiens, UniProt P24941, R150A); test: Binding affinity to human CDK2 R150A mutant expressed in Escherichia coli BL21 assessed as inhibition of interaction with cyclin A3 by measuring HHASPRK phosphorylation by ADP-Glo Max assay
[14] = tested on: A549; test: Cell cycle arrest in human A549 cells assessed as accumulation at G0/G1 phase at 25 uM after 72 hrs by propidium iodide staining-based flow cytometric analysis (reference value: 68.68%); type: functional
[15] = tested on: A549; test: Cell cycle arrest in human A549 cells assessed as accumulation at G2/M phase at 50 uM after 72 hrs by propidium iodide staining-based flow cytometric analysis (reference value: 19.79%); type: functional
[16] = tested on: A549; test: Cell cycle arrest in human A549 cells assessed as accumulation at G0/G1 phase at 10 uM after 72 hrs by propidium iodide staining-based flow cytometric analysis (reference value: 68.68%); type: functional
[17] = target: T1, Cyclin-dependent kinase 2; test: Binding affinity to N-terminal His-tagged recombinant human CDK2 (1 to 298 amino acid residues) expressed in Escherichia coli BL21 assessed as inhibition of interaction with cyclin A3 by measuring 2.5 mM HHASPRK phosphorylation by ADP-Glo Max assay in presence of 75 uM ATP
[18] = tested on: A549; test: Cell cycle arrest in human A549 cells assessed as accumulation at G2/M phase at 200 uM after 72 hrs by propidium iodide staining-based flow cytometric analysis (reference value: 19.79%); type: functional
[19] = tested on: MDA-MB-231; test: Cytotoxicity against human MDA-MB-231 cells assessed as cell viability after 72 hrs by MTS assay; type: functional, cell-based
[20] = tested on: A549; test: Cell cycle arrest in human A549 cells assessed as accumulation at G2/M phase at 25 uM after 72 hrs by propidium iodide staining-based flow cytometric analysis (reference value: 19.79%); type: functional
[21] = tested on: HepG2; test: Cytotoxicity against human HepG2 cells assessed as cell viability after 72 hrs by MTS assay; type: functional, cell-based
[22] = target: T1, Cyclin-dependent kinase 2; test: Binding affinity to N-terminal His-tagged recombinant human CDK2 (1 to 298 amino acid residues) expressed in Escherichia coli BL21 assessed as inhibition of interaction with cyclin A3 by measuring 250 uM HHASPRK phosphorylation by ADP-Glo Max assay in presence of 375 uM ATP
[23] = tested on: A549; test: Cell cycle arrest in human A549 cells assessed as accumulation at S phase at 10 uM after 72 hrs by propidium iodide staining-based flow cytometric analysis (reference value: 11.53%); type: functional
[24] = target: Cyclin-dependent kinase 2 (Homo sapiens, UniProt P24941, Y180A); test: Binding affinity to human CDK2 Y180A mutant expressed in Escherichia coli BL21 assessed as inhibition of interaction with cyclin A3 by measuring HHASPRK phosphorylation by ADP-Glo Max assay

inhibition [1]: < 5%
Compound: CC(=O)C1=C(O)C(=O)N(CO)C1c1ccccc1 (centres undefined)

inhibition [1]: 8.39%
Compound: CCN(C(=O)CCNC(=O)Cn1cnc2ccccc2c1=O)c1cccc(C(F)(F)F)c1

inhibition [1]: 62.3% | IC50 [2]: 105 µM
Compound: CCOc1cc(C(=O)Nc2ccc(S(=O)(=O)Nc3nc(C)cc(C)n3)cc2)cc(OCC)c1OCC

inhibition [1]: < 5%
Compound: CCOC(=O)C(Cc1ccc(OC)c([N+](=O)[O-])c1)NC(=O)CCC(=O)Nc1ccc(S(N)(=O)=O)cc1 (centres undefined)

Activity [3]: Dose-dependent effect | IC50 [6]: 58.1 µM | IC50 [10]: 55.1 µM | IC50 [13]: 885 µM | IC50 [17]: 69.8 µM | inhibition [1]: 65.5% | IC50 [22]: 78.3 µM | IC50 [2]: 52.1 µM | IC50 [24]: 151 µM
Compound: CSc1ccc(/C=N/c2cc([N+](=O)[O-])ccc2O)cc1
Activity [4]: 26.21% | Activity [5]: 21.91% | Activity [7]: 18.76% | Activity [8]: 41.3% | Activity [9]: Dose-dependent effect | Activity [11]: 60.8% | Activity [12]: 43.49% | Activity [14]: 65.26% | Activity [15]: 12.99% | Activity [16]: 66.03% | Activity [18]: 15.2% | Activity [19]: Dose-dependent effect | Activity [20]: 12.83% | Activity [21]: Dose-dependent effect | Activity [23]: 15.21%

inhibition [1]: < 5%
Compound: Cn1c(=O)[nH]c(=O)c2c1nc(N/N=C1/C(=O)Nc3ccccc31)n2CC(O)COc1ccccc1 (centres undefined)

inhibition [1]: < 5%
Compound: O=C(CSc1nc2ccc(NC(=O)CSCC(=O)Nc3ccc4ccccc4c3)cc2s1)NCCOc1ccccc1

inhibition [1]: 35.2%
Compound: C/C(Cc1ccccc1)=N\Nc1nnc2c(n1)[nH]c1ccccc12

inhibition [1]: 37.5%
Compound: Cc1ccccc1C(=O)N(Cc1ccc(C(F)(F)F)cc1)c1ccc(CC(=O)NCc2ccc(F)cc2)cc1

inhibition [1]: 38%
Compound: Cc1cc(C)nc(NS(=O)(=O)c2ccc(NC(=O)CCCCC(=O)Nc3ccc(S(=O)(=O)Nc4nc(C)cc(C)n4)cc3)cc2)n1

inhibition [1]: 5.54%
Compound: CN1C(=O)c2cccc3c(S(=O)(=O)NCCC(=O)O)ccc1c23

inhibition [1]: < 5%
Compound: COc1ccccc1OCCOc1ccccc1/C=c1\sc2n(c1=O)C(c1ccccc1)C(C(=O)Nc1ccccc1)=C(C)N=2 (centres undefined)

inhibition [1]: < 5%
Compound: Cc1ccc(S(=O)(=O)Nc2ccc(C(=O)N3N=C(c4c(-c5ccccc5)c5cc(Br)ccc5[nH]c4=O)CC3c3ccccc3)cc2)cc1 (centres undefined)

inhibition [1]: < 5%
Compound: Cc1[nH]c2ccccc2c1/C=N/c1ccccc1C(=O)O

inhibition [1]: 31%
Compound: OC(CN1CCN(CC(O)Cn2c3ccc(Br)cc3c3cc(Br)cc(Br)c32)CC1)Cn1c2ccccc2c2ccccc21 (centres undefined)
